SMILES strings stand for the structures. pIC50, pKi: −log10 of the molar value. “And” between values parts separate entries of the source, which are not always exact repeats. Equal values may be shown once. Where a name gives a salt, the structure may show the parent alone.

Test [1] has as its target T1, β-secretase (BACE) (Homo sapiens, UniProt P56817).
T1 construct: purchased Panvera
Nature of the test: BACE FS1 Assay (% Inhibition and Ki). As to conditions: FS1 substrate; for inhibition at 0.3 µM: 0.3 μM test compound, read-out: % Inhibition (FS) @ 0.3 μM; for inhibition at 1 µM: 1 μM test compound, read-out: % Inhibition (FS) @ 1 μM; for inhibition at 3 µM: 3 μM test compound, read-out: % Inhibition (FS) @ 3 μM. The test is classed as biochemical. The procedure:
BACE FS1 Assay (% Inhibition and Ki)
The following reagents were used in this assay: sodium acetate, PEG8000 (Sigma), DMSO, HEPES, FS1 substrate [R(AedensE)[…]-(DabcylK)R], β-secretase (BACE) (Panvera), and 96-well plate (HE microplate, Molecular Devices).
The following assay buffers were prepared and used in this assay: (1) enzyme assay buffer (0.05 M sodium acetate, pH5, 0.1% PEG8000 (w/v)), (2) substrate assay buffer (0.05 M sodium acetate, pH5), and (3) compound vehicle (30% DMSO in 50 mM HEPES, pH 7.4).
The FS1-substrate stock solution was prepared in DMSO as a 10 mg/mL solution. The FS1-substrate working solution was prepared by diluting the 10 mg/mL stock solution with substrate assay buffer to a final concentration of 300 μg/mL. The β-secretase (BACE) working solution was prepared by diluting a 0.83 mg/mL BACE stock solution with enzyme assay buffer to a final concentration of 4 μg/mL.
Test compounds were dissolved in DMSO to 10 mM. Compounds were further diluted in vehicle to various concentrations in the range of 405 μM to 4.05 μM (13.5× final compound concentration in screening plate).
The screening procedure for this assay was as follows: 15 μL of BACE working solution was pipetted into each well of a 96-well plate. To each well was then pipetted 2 μL of test compound at the selected concentration. Test compound and BACE were then mixed with a pipettor and incubated for 20 min at room temperature. To each well was then added 10 μL of the FS1 substrate working solution. The plates were then incubated for 1 hour at room temperature. The fluorescence for each well was then measured on an LJL analyst (Ex 360 nm/Em 530 nm).
The procedure for the blank was as follows. 15 μL of assay buffer was pipetted into each well to be used as a blank control. To each well was then added 2 μL of vehicle and […] of FS1-substrate working solution. The plates were then incubated for 1 hour at room temperature. The fluorescence was measured on an LJL analyst (Ex 360 nm/Em 530 nm).
The procedure for the positive control was as follows: 15 μL of BACE working solution was pipetted into each well to be used as a positive control. To each well was then pipetted 2 μL of vehicle. Vehicle and BACE were then mixed with a pipettor and incubated for 20 min at room temperature. To each well was then added 10 μL of the FS1 substrate working solution. The plates were then incubated for 1 hour at room temperature. The fluorescence (F1) was then measured on an LJL analyst (Ex 360 nm/Em 530 nm).
For test compounds, % inhibition was determined at each concentration as follows:
% Inhibition values of less than 30% were indistinguishable from control are listed as ≦30% in Table 18, below.
For test compounds, measured at multiple concentrations, the measured T0 and T60 values were used to calculate an IC50 value using Graphpad Software (or PIR). Ki inhibition was determined as follows: For each compound concentration and positive control, rate of cleavage of substrate (Vi, where i=compound concentration in μM) was determined as Δ Fluorescence/Δ time (min). Cleavage rates (Vi) were plotted as a function of inhibitor concentration in μM [I]. […]

Test [2] concerns the target human BACE-1 (Homo sapiens, UniProt P56817). Nature of the test: CEREP BACE Inhibition Assay. Format: biochemical. Conditions: recombinant enzyme. The method in brief: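 Recombinant human BACE-1 (0.25 μg) was assayed in 0.09 M sodium acetate pH 4.5, with activity followed fluorimetrically as formation of Mca-S-E-V-N-L[…] from peptide substrate. Compound autofluorescence was checked at the detection wavelengths. Basal signal was taken from wells without substrate.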

[3] abbreviates: 0.3 μM, percent inhibition of the control activity.

Chain of human BACE-1 (P56817 46-501): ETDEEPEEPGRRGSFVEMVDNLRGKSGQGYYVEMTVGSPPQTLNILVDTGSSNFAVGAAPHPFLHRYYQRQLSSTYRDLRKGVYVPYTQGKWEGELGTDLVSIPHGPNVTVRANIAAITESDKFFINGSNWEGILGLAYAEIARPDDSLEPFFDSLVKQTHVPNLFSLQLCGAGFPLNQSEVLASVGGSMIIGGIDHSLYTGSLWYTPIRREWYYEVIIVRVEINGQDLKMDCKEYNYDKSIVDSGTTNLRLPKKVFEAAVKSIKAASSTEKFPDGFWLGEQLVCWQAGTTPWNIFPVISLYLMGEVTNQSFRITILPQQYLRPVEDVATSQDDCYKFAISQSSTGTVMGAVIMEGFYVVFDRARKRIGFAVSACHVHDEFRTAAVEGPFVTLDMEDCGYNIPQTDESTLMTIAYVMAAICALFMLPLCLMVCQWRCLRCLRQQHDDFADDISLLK
T1 sequence (P56817 46-501): as above

In the case of `NC1=Nc2cnc(Oc3ccccc3)cc2CN1[C@@H](CCC(=O)N(CCO)C1CCCCC1)C1CCCCC1` [Compound 7, 4-(2-Amino-6-phenoxy-4H-pyrido[3,4-d]pyrimidin-3-yl)-4S,N-dicyclohexyl-N-(2-hydroxy-ethyl)-butyramide], in test [1], the inhibition at 0.3 µM is 136%, the inhibition at 1 µM was 136%, the inhibition at 3 µM turned out to be 134% and the pKi was 8.00. Further, in test [2] (setting [3]), the “% Inhibition @ 0.3 μM” value was 95% and 100%; the inhibition at 0.3 µM turned out to be 91%. In addition, the pIC50 in test [2] (read-out: IC50) was 6.85 and 6.82.

Take `COC(=O)[C@H](COCc1ccccc1)NC(=O)CC[C@@H](C(C)C)N1Cc2cc(Oc3ccccc3)ncc2N=C1N` [Compound 45, 2-[4-(2-Amino-6-phenoxy-4H-pyrido[3,4-d]pyrimidin-3-yl)-5-methyl-(S)-hexanoylamino]-3-(S)-benzyloxy-propionic acid methyl ester hydrobromide salt]: in test [1], the inhibition at 0.3 µM was determined as 82%, the inhibition at 1 µM is 91%, the inhibition at 3 µM amounted to 110% and the pKi is 6.90.

As to `CC(C)[C@H](CCC(=O)N[C@@H](COCc1ccccc1)C(=O)O)N1Cc2cc(Oc3ccccc3)ncc2N=C1N` [Compound 47, 2-[4-(2-Amino-6-phenoxy-4H-pyrido[3,4-d]pyrimidin-3-yl)-5-methyl-(S)-hexanoylamino]-3-(S)-benzyloxy-propionic acid], in test [1], the inhibition at 0.3 µM amounted to 109%, the inhibition at 1 µM was 109%, the inhibition at 3 µM was determined as 115% and the pKi is 7.14.

`CC(C)[C@H](CCC(=O)N[C@H](COCc1ccccc1)C(=O)OCc1ccccc1)N1Cc2cc(Oc3ccccc3)ncc2N=C1N` [Compound 48]: in test [1], the inhibition at 0.3 µM is 73%, the inhibition at 1 µM came to 107%, the inhibition at 3 µM is 116% and the negative logarithm of the Ki (pKi) was 7.44.

Turning to `CCC(CC)N(CCO)C(=O)CC[C@@H](C1CCCCC1)N1Cc2cc(Oc3ccccc3)ncc2N=C1N` [Compound 50], in test [1], the inhibition at 0.3 µM was 68%, the inhibition at 1 µM stood at 100%, the inhibition at 3 µM amounted to 112% and the pKi is 7.24.

`COC(=O)[C@H](COCc1ccccc1)N(C)C(=O)CC[C@@H](C(C)C)N1Cc2cc(Oc3ccccc3)ncc2N=C1N` [Compound 51, 2-{[4-(2-Amino-6-phenoxy-4H-pyrido[3,4-d]pyrimidin-3-yl)-5-methyl-(S)-hexanoyl]-methyl-amino}-3-(S)-benzyloxy-propionic acid methyl ester trifluoroacetate salt]: in test [1], the inhibition at 0.3 µM is 114%, the inhibition at 1 µM worked out at 118%, the inhibition at 3 µM turned out to be 118% and the pKi is 7.85.

Regarding `CC(C)[C@H](CCC(=O)N(C)[C@@H](COCc1ccccc1)C(=O)O)N1Cc2cc(Oc3ccccc3)ncc2N=C1N` [Compound 52, 2-{[4-(2-Amino-6-phenoxy-4H-pyrido[3,4-d]pyrimidin-3-yl)-5-methyl-(S)-hexanoyl]-methyl-amino}-3-(S)-benzyloxy-propionic acid trifluoroacetate salt], in test [1], the inhibition at 0.3 µM was determined as 107%, the inhibition at 1 µM amounted to 118%, the inhibition at 3 µM stood at 118% and the pKi is 8.05.

Source of the values: patent publication US7531545B2, “2-amino-3,4-dihydro-pyrido[3,4-d]pyrimidine derivatives useful as inhibitors of β-secretase (BACE)” (Janssen Pharmaceutica, N.V., priority 2005, dated 2009).
